Data: patent publication US20250136617A1 (The Regents of the University of Colorado, A Body Corporate, priority 2022, published 2025)
pEC50: −log10 of the molar value. Read-outs that look alike come from different tables or passages of the source.

Experiments:
Type in all cases: cell-based
CXCR4 [1] = target: T1, CXCR4 (Homo sapiens, UniProt P61073); assay: β-arrestin recruitment, 384-well, Tango CXCR4-bla U2OS cells, normalized to SDF-1α; design: host or cells: U2OS; settings: for ß-arrestin recruitment Emax (%): normalized to maximal SDF-1α response; for Emax: U2OS, read-out: TANGO β-arrestin Emax (%)
Procedure: Tango™ CXCR4-bla U2OS Cells (Invitrogen; K1779) were used for (β-arrestin recruitment assays and maintained as a monolayer culture in McCoy's 5a (Corning; 10-050-CV) supplemented with 10% dialyzed Fetal Bovine Serum (Gibco; 26400-044), 0.1 mM MEM Non-essential amino acids solution, 25 mM HEPES solution (Corning; 25-060-CI), 1 mM Sodium Pyruvate (Gibco; 11360-070), 200 μg/mL Zeocin selection reagent (Gibco; R25001), 50 μg/mL Hygromycin B (Gibco, 10687010), and 100 μg/mL Geneticin (G418 Sulfate) (Gibco, 10131035). U2OS cells were subcultured twice weekly by 0.05% Trypsin-EDTA treatment (Corning; 25-051-CI) and passaged to continue exponential growth phase for cell signaling assays. All cell cultures were maintained in cell culture incubators at 37° C. with 5% CO2. CHO-K1 CXCR4 cells (DiscoverX, Fremont, CA, USA) were used for cAMP inhibition assays and maintained as a monolayer culture in DMEM/F12 (Corning; 10-091-CV) supplemented with 10% Fetal Bovine Serum (Corning; 35-011-CV) and 100IU penicillin, […] streptomycin sulfate (Corning; 30-002-CI) and […] G418 (Gibco; 101310350. Cells were subculture 2 times weekly by o.o5% Trypsin-EDTA treatment (Corning; 25-051-CI) and passaged to continue exponential growth phase for cell signaling assays. All cell cultures were maintained in cell culture incubators at 37° C. with 5% CO2.CEM-CCRF cells (ATCC CCL-119) were used in both the migration and calcium flux assays and were cultured in growth media consisting of RPMI 1640 (Corning; 10-040-CV) supplemented with 10% Fetal Bovine Serum (Corning; 35-011-CV), and 100 IU penicillin, […] streptomycin sulfate (Corning; 30-002-CI). Cells were maintained in suspension and sub-cultured twice weekly to maintain cell densities between 0.8×10^6 cells/mL and 2.5×10^6 cells/mL to maintain exponential growth phase. Cells were harvested for use in migration and calcium flux assays at 2.0×10^6 cells/mL to 2.5×10^6 cells/mL and resuspended in assay media to desired density for respective experiments.
Tango™ CXCR4-bla U2OS Cells were resuspended in assay media consisting of DMEM (Corning; Corning, NY) supplemented with 1% dialyzed Fetal bovine serum, 0.1 mM MEM Non-essential amino acids solution, 25 mM HEPES solution (Corning; Corning, NY), 1 mM Sodium Pyruvate and 100 IU penicillin, […] streptomycin sulfate (Corning; Corning, NY) at a density of 3.0×10^5 cells/ml. Assay media FreeStyle 293 expression Medium (Gibco; 12338018) was used for testing the thiadiazine scaffold CXCR4 agonists. Cells suspension was dispensed at 30 μl per well into assay plate and incubated overnight in a cell culture incubator at 37° C. with 5% CO2. […] Following overnight incubation, LiveBlazer FRET B/G Loading Kit (Invitrogen; K1095) working reagent was prepared according to supplier guidelines and 6 μl of solution was dispensed into each well; 8 μL of solution for testing the thiadiazine scaffold CXCR4 agonists. Assay plate was covered and incubated in a dark place for two hours and Fluorescence Intensity was measured using the BMG LABTECH CLARIOstar Plus (BMG LABTECH Inc., Cary, NC) according to the LiveBlazer FRET B/G Loading Kit excitation and emission measurement guidelines.
Results are expressed as mean±SD for 3 to 5 independent experiments. Statistically significant differences in gene expression between two groups were assessed by Student's T-test, ANOVA with an appropriate post hoc test was be used for multiple comparisons. P<0.05 was considered to be statistically significant. All concentration response curves were analyzed to determine EC50 and Emax using the following equation:
where Y is the normalized response (0-100%), X is the log of concentration of compound tested, and the Hill slope is equal to 1.0% and 100% activity are specific to each assay. […]

[2] = tested on: CEM-CCRF human lymphoblast cells; assay: Transwell migration assay in CEM-CCRF lymphoblasts; settings: for pEC50: read-out: Migration CEM EC50
Procedure: Thus, to confirm CXCR4 functional activity, UCUF-728 was evaluated in a 96 w transwell migration assay in CEM human lymphoblast cells.
CEM-CCRF (ATCC CCL-119) were suspended in RPMI 1640 (Corning; 10-040-CV) at 5.0×10^5 cells/mL and allowed to incubate in cell culture incubator at 37° C. with 5% CO2 for one hour. […] Plates were reassembled and placed in a cell culture incubator at 37° C. with 5% CO2 for three hours. After incubation, Multi-Screen plate was disassembled and 100 μl of solution was collected from compound receiver tray and transferred to 96 well luminescent plate (Thermo Scientific; 265302) and an equal volume of ATPLite Istep luminescence reagent (Perkin Elmer, Waltham, MA; 6016731) was added to each well. Luminescence was measured using the CLARIOstar Plus (BMG LABTECH Inc., Cary, NC).

CXCR4 [3] = target: T1, CXCR4; assay: primary 1536 w β-arrestin recruitment assay (FRET, β-lactamase reporter) in U2OS cells overexpressing CXCR4; design: host or cells: U2OS; settings: for Emax: U2OS, read-out: CXCR4 b-arrestin Emax (%); for activity in primary β-arrestin assay: SAR discussion
Procedure: In an effort to identify CXCR4 activators from the NIH Molecular Library Small Molecule Repository (MLSMR), a primary screening assay was developed to measure β-arrestin recruitment to the activated G-protein coupled receptor by Florescence Resonance Energy Transfer (FRET) in U2OS cells overexpressing the CXCR4 receptor engineered with a β-lactamase (bla) reporter system (Invitrogen cat #K1779). CXCR4-bla cells plated in 1536 w were stimulated in the presence of 10 uM compound concentration. […] Using this approach, 370,620 compounds from the NIH MLSMR were successfully screened and 303 hits were identified (hit rate=0.08%; Z′=0.83). […] These compounds were graded according to activity and structure resulting in 86 compounds that met criteria as potential CXCR4 agonists for further characterization.
Chemical stability, synthetic tractability, solubility and complete dose response and potency criteria led to the prioritization of the 5-aryl-2-cyclopropyl oxazole scaffold, represented by primary hit Compound 2 (Table 1). Early structure-activity relationship was established around the 5-aryl-2-cyclopropyl oxazole core with commercially available analogs with diverse substituents in the sulfonanilide ring of the scaffold. […] Keeping the 2-OMe substituent constant a small set of electron withdrawing and electron rich substituents at the 5-position of the anilide ring were screened (entries 16-19).

[4] = normalized to SDF-1, read-out: TANGO β-arrestin EC50
[5] = normalized to SDF-1α, read-out: ß-arrestin recruitment EC50

T1 sequence (P61073 whole entry): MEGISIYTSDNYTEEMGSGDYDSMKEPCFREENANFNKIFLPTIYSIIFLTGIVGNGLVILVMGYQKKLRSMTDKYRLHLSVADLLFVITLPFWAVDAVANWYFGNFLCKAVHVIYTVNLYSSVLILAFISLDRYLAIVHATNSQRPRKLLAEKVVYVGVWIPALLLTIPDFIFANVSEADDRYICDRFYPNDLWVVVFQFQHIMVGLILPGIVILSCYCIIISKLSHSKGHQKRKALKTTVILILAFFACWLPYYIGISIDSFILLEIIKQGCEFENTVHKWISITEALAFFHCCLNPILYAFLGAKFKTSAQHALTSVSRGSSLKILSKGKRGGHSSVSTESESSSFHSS

Q: Which results are given for `CCOc1ccccc1-c1nnc2n1N=C(c1ccc(NC3CCCC3)cc1)CS2` [Entry 45]?
A: TANGO β-arrestin Emax (%) (CXCR4 [1]; normalized to SDF-1): C (C ≤ 35); pEC50 (CXCR4 [1]; [4]): > 5.30; pEC50 (CXCR4 [1]; [5]): 5.85; ß-arrestin recruitment Emax (%) (CXCR4 [1]): 31%; Migration CEM Emax (%) [2]: C (C ≤ 35); pEC50 [2]: > 5.30

Q: What does the source list for `CCOc1ccccc1-c1nnc2n1N=C(c1ccc(NC3CCCCC3)cc1)CS2` [Entry 46]?
A: TANGO β-arrestin Emax (%) (CXCR4 [1]; normalized to SDF-1): C (C ≤ 35); pEC50 (CXCR4 [1]; [4]): > 5.30; pEC50 (CXCR4 [1]; [5]): 6.11; ß-arrestin recruitment Emax (%) (CXCR4 [1]): 10%; Migration CEM Emax (%) [2]: C (C ≤ 35); pEC50 [2]: > 5.30

Q: Which results are given for `CCOc1ccccc1-c1nnc2n1N=C(c1ccc(NCc3ccccc3)cc1)CS2` [Entry 47]?
A: pEC50 (CXCR4 [1]; [4]): < 5.00; pEC50 ([2]; Homo sapiens): < 5.00

Q: What does the source list for `CCOc1ccccc1-c1nnc2n1N=C(c1ccc(NCC3CC3)cc1)CS2` [Entry 48]?
A: Emax (CXCR4 [1]; normalized to SDF-1): < 35%; pEC50 (CXCR4 [1]; [4]): > 5.30; pEC50 ([2]; Homo sapiens): < 5.00

Q: `CCOc1ccccc1-c1nnc2n1N=C(c1ccc(NCC3CCCC3)cc1)CS2` [Entry 49] was tested. Which pEC50 (CXCR4 [1]; [4]) did it give?
A: < 5.00

Q: And the pEC50 [2]?
A: < 5.00

Q: Which Emax (CXCR4 [1]; normalized to SDF-1) does the source give for `CCOc1ccccc1-c1nnc2n1N=C(c1ccc(N3CCCC3=O)cc1)CS2` [Entry 63] here?
A: < 35%

Q: What about the pEC50 (CXCR4 [1]; [4]) of the same molecule?
A: > 5.30

Q: What about the Emax ([2]; Homo sapiens) of the same molecule?
A: 35 to 70%

Q: Which results are given for `CCOC(=O)C1CCN(c2ccc(C3=Nn4c(nnc4-c4ccccc4OCC)SC3)cc2)C1` (stereo not drawn) [Entry 66]?
A: TANGO β-arrestin Emax (%) (CXCR4 [1]; normalized to SDF-1): C (C ≤ 35); pEC50 (CXCR4 [1]; [4]): < 5.00; Migration CEM Emax (%) [2]: B (35 < B < 70); pEC50 [2]: > 5.30

Q: What does the source list for `CCOc1ccccc1-c1nnc2n1N=C(c1ccc(C(=O)Nc3ccccc3)cc1)CS2` [Entry 69]?
A: Emax (CXCR4 [1]; normalized to SDF-1): < 35%; pEC50 (CXCR4 [1]; [4]): > 5.30; Emax ([2]; Homo sapiens): 35 to 70%; pEC50 ([2]; Homo sapiens): > 5.30

Q: How did the pEC50 (CXCR4 [1]; [4]) turn out when `CCOc1ccccc1-c1nnc2n1N=C(c1ccc(C(=O)O)cc1)CS2` [Entry 70] was run?
A: < 5.00

Q: And the Emax ([2]; Homo sapiens)?
A: 35 to 70%

Q: And the pEC50 ([2]; Homo sapiens)?
A: > 5.30

Q: For `CCOc1ccccc1-c1nnc2n1N=C(c1ccc(C(=O)OC)cc1)CS2` [Entry 71], which Emax (CXCR4 [1]; normalized to SDF-1) is on record?
A: < 35%

Q: And the pEC50 (CXCR4 [1]; [4])?
A: > 5.30

Q: What about the Emax ([2]; Homo sapiens) of the same molecule?
A: 35 to 70%

Q: And the pEC50 ([2]; Homo sapiens)?
A: > 5.30

Q: Which Emax (CXCR4 [1]; normalized to SDF-1) does the source give for `COc1ccc(OC)c(-c2nnc3n2N=C(c2ccc(N4CCC4)cc2)CS3)c1` [Entry 80] here?
A: < 35%

Q: And the pEC50 (CXCR4 [1]; [4])?
A: > 5.30

Q: What about the Emax ([2]; Homo sapiens) of the same molecule?
A: 35 to 70%

Q: What about the pEC50 ([2]; Homo sapiens) of the same molecule?
A: > 5.30

Q: For `CCc1ccccc1NS(=O)(=O)c1ccc(-c2cnc(C3CC3)o2)cc1` [compound 3], which Emax (CXCR4 [3]) is on record?
A: 38%

Q: Which results are given for `CCOc1ccccc1NS(=O)(=O)c1ccc(-c2cnc(C3CC3)o2)cc1` [compound 5]?
A: pEC50 (CXCR4 [3]; 1536 w screening platform): 6.00; Emax (CXCR4 [3]): 46%

Q: For `CCOc1ccc(NS(=O)(=O)c2ccc(-c3cnc(C4CC4)o3)cc2)cc1` [compound 9], which Emax (CXCR4 [3]) is on record?
A: 38%

Q: With `Cc1cccc(NS(=O)(=O)c2ccc(-c3cnc(C4CC4)o3)cc2)c1C` [compound 10] as the molecule, how does the Emax (CXCR4 [3]) read?
A: 40%

Q: How did the Emax (CXCR4 [3]) turn out when `Cc1ccc(NS(=O)(=O)c2ccc(-c3cnc(C4CC4)o3)cc2)c(C)c1` [compound 12] was run?
A: 38%

Q: What does the source list for `Cc1ccc(C)c(NS(=O)(=O)c2ccc(-c3cnc(C4CC4)o3)cc2)c1` [compound 13]?
A: activity in primary β-arrestin assay (CXCR4 [3]): most active among the dimethyl analogs; Emax (CXCR4 [3]): 42%

Q: Which results are given for `Cc1cccc(C)c1NS(=O)(=O)c1ccc(-c2cnc(C3CC3)o2)cc1` [compound 14]?
A: activity in primary β-arrestin assay (CXCR4 [3]): most active among the dimethyl analogs; Emax (CXCR4 [3]): 45%

Q: Which Emax (CXCR4 [3]) does the source give for `Cc1cc(C)cc(NS(=O)(=O)c2ccc(-c3cnc(C4CC4)o3)cc2)c1` [compound 15] here?
A: 39%

Q: With `COc1ccc(F)cc1NS(=O)(=O)c1ccc(-c2cnc(C3CC3)o2)cc1` [compound 17] as the molecule, how does the Emax (CXCR4 [3]) read?
A: 42%

Q: For `COc1ccc(NS(=O)(=O)c2ccc(-c3cnc(C4CC4)o3)cc2)cc1OC` [compound 20], which “activity in primary β-arrestin assay” value (CXCR4 [3]) is on record?
A: inactive or had marginal activity
